From paper PMC2662387 (Journal of medicinal chemistry, 2008) come the findings set out here.

Data set [1] concerns the target T1, D3 receptor (Rattus norvegicus, UniProt P19020). The class given is in vivo. To be noted: rats.
The target in the next data set is D2 receptor (Rattus norvegicus, UniProt P61169). Kind of data set: Hypothermia in rats. Format: in vivo. To be noted: for Induction of hypothermia: compound alone.
Another data set can be described thus: Aqueous solubility. Format: physicochemical.
Data set [2] deals with T1, D3 receptor. Kind of data set: D3 receptor binding assay, [3H]PD128907, rat brain. To be noted: for Fold less potent than 6 at the D3 receptor: relative to compound 6.

Sequence of D2 receptor (P61169 whole entry): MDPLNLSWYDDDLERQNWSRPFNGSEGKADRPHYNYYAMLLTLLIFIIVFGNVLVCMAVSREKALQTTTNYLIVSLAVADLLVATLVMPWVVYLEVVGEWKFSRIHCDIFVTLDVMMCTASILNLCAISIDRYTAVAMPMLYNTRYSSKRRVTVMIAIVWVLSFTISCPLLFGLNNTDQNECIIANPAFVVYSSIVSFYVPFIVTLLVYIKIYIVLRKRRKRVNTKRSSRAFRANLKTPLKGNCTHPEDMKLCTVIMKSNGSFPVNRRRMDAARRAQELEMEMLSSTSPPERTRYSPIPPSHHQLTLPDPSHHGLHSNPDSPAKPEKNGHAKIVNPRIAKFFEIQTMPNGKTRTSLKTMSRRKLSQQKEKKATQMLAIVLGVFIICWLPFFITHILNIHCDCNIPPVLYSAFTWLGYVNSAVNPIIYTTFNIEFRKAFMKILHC
T1 sequence (P19020 whole entry): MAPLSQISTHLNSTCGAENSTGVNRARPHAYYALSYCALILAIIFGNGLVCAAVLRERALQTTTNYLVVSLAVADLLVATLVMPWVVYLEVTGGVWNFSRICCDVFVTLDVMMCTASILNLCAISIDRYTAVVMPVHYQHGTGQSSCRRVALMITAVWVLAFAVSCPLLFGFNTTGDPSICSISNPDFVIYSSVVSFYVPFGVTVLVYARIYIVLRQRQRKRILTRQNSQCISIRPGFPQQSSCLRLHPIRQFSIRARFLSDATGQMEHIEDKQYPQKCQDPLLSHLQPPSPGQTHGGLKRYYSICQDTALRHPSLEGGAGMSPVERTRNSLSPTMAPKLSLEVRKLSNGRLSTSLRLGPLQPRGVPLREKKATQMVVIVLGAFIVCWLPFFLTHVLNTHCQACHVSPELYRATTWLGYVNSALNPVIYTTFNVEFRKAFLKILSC

For `CCCN[C@H]1CCc2nc(N)sc2C1` [Compound 1, pramipexole, reference compound], the Induction of yawning entry on D3 receptor [1] (compound alone, dose-response) is given as “increases in yawning were observed over low doses (0.01 to 0.1 mg/kg)”. Moreover, the “In vivo functional profile at D3 and D2 receptors” value on D3 receptor [1] (concluded from yawning and hypothermia assays) was “preferential D3 agonist in vivo and a D2 agonist at higher doses”. Also, the Induction of hypothermia entry at D2 receptor is on record as “induction of hypothermia occurring at higher doses”.

As to `CCCN(CCCCNC(=O)c1ccc2ccccc2c1)[C@H]1CCc2nc(N)sc2C1` [Compound 5], the “Aqueous solubility (in words)” value in the data set “Aqueous solubility” was “good aqueous solubility”. Moreover, at D2 receptor, the Induction of hypothermia entry was “hypothermia was induced by 5 at higher doses”.

With `CC(C)CCN(CC[C@H]1CC[C@H](NC(=O)c2ccc3ccccc3c2)CC1)[C@H]1CCc2nc(N)sc2C1` [Compound 8], at D3 receptor [2], the “Fold less potent than 6 at the D3 receptor” value is listed as 5 times.

In the case of `CCCN(CC[C@H]1CC[C@H](NC(=O)c2ccc3ccccc3c2)CC1)[C@H]1CCc2nc(N)sc2C1.Cl.Cl` [Compound 6], in “Aqueous solubility”, the “Aqueous solubility (in words)” value is recorded as “good aqueous solubility”. Besides, the Induction of hypothermia entry on D2 receptor is “failed to induce changes in body temperature over the initial hour of observation”.

In the case of `COc1ccc2c(c1)CC[C@@H]1CN(CC[C@H]3CC[C@H](NC(=O)c4ccc5ccccc5c4)CC3)CCN21` [Compound 4, reference compound], the “Aqueous solubility (in words)” value in the data set “Aqueous solubility” was “poor aqueous solubility”. For the same molecule, the “Selectivity D1-like/D3” value at D3 receptor [2] (ratio of Ki values) was more than 5000 fold. Moreover, at D3 receptor [2] (ratio of Ki values, high affinity D2 component where 2-site fit), the “Selectivity D2-like/D3” value was more than 1000 fold.

`Nc1nc2c(s1)C[C@@H](NCC[C@H]1CC[C@H](NC(=O)c3ccc4ccccc4c3)CC1)CC2` [Compound 10]: on D3 receptor [2], the “Fold less potent than 6 at the D3 receptor” value is listed as 19 times.

For `CCCN(CC[C@H]1CC[C@H](NC(=O)/C=C/c2ccccc2)CC1)[C@H]1CCc2nc(N)sc2C1` [Compound 12], the “Aqueous solubility (in words)” value in “Aqueous solubility” is reported as “good aqueous solubility”. At D2 receptor, the Induction of hypothermia result was “failed to induce changes in body temperature over the initial hour of observation”. For the same molecule, the “Effect on compound 1-induced hypothermia” value at D2 receptor (pretreatment with 12) is listed as “failed to alter the induction of hypothermia by 1”.
